Assay results as given in patent publication US6974806B2, “Lipid-rich plaque inhibitors” (Takeda Pharmaceutical Company Limited, priority 2000, dated 2005).

SMILES | melting point
O=C(Cc1c(-c2ccccc2)c2cc3c(cc2oc1=O)CCC3)Nc1ccc(F)cc1C(F)(F)F [Example 20] | 186 to 187 °C
Cc1cc2c(-c3cccnc3)c(CC(=O)Nc3ccc(Cl)cc3C(F)(F)F)c(=O)oc2cc1Cl [Example 329] | 212 to 215 °C
COc1cc2c(-c3ccccc3)c(CC(=O)Nc3ccc(Cl)cc3C(F)(F)F)c(=O)oc2cc1Cl [Example 178, 2-(7-chloro-6-methoxy-2-oxo-4-phenyl-2H-chromen-3-yl)-N-[4-chloro-2-(trifluoromethyl)phenyl]acetamide] | 246 to 247 °C
COc1cccc(OC)c1NC(=O)Nc1oc2cc3c(cc2c1-c1ccccc1C)CCC3 [Example 102, N-(2,6-Dimethoxyphenyl)-N′-[3-(2-methylphenyl)-6,7-dihydro-5H-indeno[5,6-b]furan-2-yl]urea] | 208 °C (dec.)
CC(C)c1cccc(C(C)C)c1NC(=O)Cc1c(-c2ccccc2)c2cc(CN(C)C)c(Cl)cc2oc1=O [Example 72] | 301 to 303 °C
CC(=O)OCc1cc2c(-c3ccccc3)c(CC(=O)Nc3c(C(C)C)cccc3C(C)C)c(=O)oc2cc1Cl [Example 81, [7-chloro-3-{2-(2,6-isopropylanilino)-2-oxoethyl}-2-oxo-4-phenyl-2H-chromen-6-yl]]methyl acetate] | 290 to 292 °C
O=C(Cc1c(-c2ccccc2)c2cc(CO)c(Cl)cc2oc1=O)Nc1ccc(Cl)cc1C(F)(F)F [Example 85] | 241 to 243 °C
CC(=O)OCc1cc2c(-c3ccccc3)c(CC(=O)Nc3ccc(Cl)cc3C(F)(F)F)c(=O)oc2cc1Cl [Example 82, [7-chloro-3-{2-(4-chloro-2-trifluoromethylanilino)-2-oxoethyl}-2-oxo-4-phenyl-2H-chromen-6-yl]methyl acetate] | 186 to 187 °C
Cc1cc2c(-c3cccnc3)c(CC(=O)Nc3ccc(F)cc3C(F)(F)F)c(=O)oc2cc1Cl [Example 330] | 213 to 215 °C
CCc1cccc(CC)c1NC(=O)Cc1c(-c2ccccc2)c2cc3c(cc2oc1=O)CCC3 [Example 4] | 279 to 281 °C
CCN(CC)Cc1cc2c(-c3ccccc3)c(CC(=O)Nc3ccc(Cl)cc3C(F)(F)F)c(=O)oc2cc1Cl [Example 182] | 163 to 164 °C
O=C(Cc1c(-c2ccccc2)c2cc(F)c(F)cc2oc1=O)Nc1c(OC2CCCC2)cccc1OC1CCCC1 [Example 44] | 253 to 254 °C
O=C(Cc1c(-c2ccccc2)c2cc(CN3CCN(c4ncccn4)CC3)c(Cl)cc2oc1=O)Nc1ccc(Cl)cc1C(F)(F)F [Example 272] | 214 to 217 °C
Cc1cc2oc(=O)c(CC(=O)Nc3ccc(F)cc3C(F)(F)F)c(-c3ccccc3)c2cc1Br [Example 177, 2-(6-bromo-7-methyl-2-oxo-4-phenyl-2H-chromen-3-yl)-N-[4-fluoro-2-(trifluoromethyl)phenyl]acetamide] | 237 to 238 °C
COc1cc(O)c(NC(=O)Cc2c(-c3ccccc3)c3cc4c(cc3oc2=O)CCC4)c(OC)c1 [Example 11] | 170 to 172 °C
O=C(Cc1c(-c2ccccc2)c2cc(CO)ccc2oc1=O)Nc1ccc(Cl)cc1C(F)(F)F [Example 86] | 226 to 227 °C
CCOc1cccc(OCC)c1NC(=O)Cc1c(-c2ccccc2)c2cc(Cl)c(C)cc2oc1=O [Example 24] | 235 to 236 °C
CCOc1cccc(OCC)c1NC(=O)Cc1c(-c2ccccc2)c2cc(Cl)c(Cl)cc2oc1=O [Example 37] | 246 to 247 °C
O=C(Cc1c(-c2ccccc2)c2cc3c(cc2oc1=O)CCC3)Nc1c(OC2CCCC2)cccc1OC1CCCC1 [Example 14] | 224 to 226 °C

SMILES | melting point
COc1cccc(C)c1NC(=O)Cc1c(-c2ccccc2)c2cc3c(cc2oc1=O)CCC3 [Example 5] | 232 to 237 °C
O=C(Cc1c(-c2ccccc2)c2cc(CN3CCOCC3)c(Cl)cc2oc1=O)Nc1ccc(Cl)cc1C(F)(F)F [Example 74, 2-[7-chloro-6-{(morpholin-4-yl)methyl}-2-oxo-4-phenyl-2H-chromen-3-yl]-N-(4-chloro-2-trifluoromethylphenyl)acetamide] | 205 to 207 °C
CCOC(=O)C=Cc1cccc(-c2c(CC(=O)Nc3ccc(Cl)cc3C(F)(F)F)c(=O)oc3cc(Cl)c(C)cc23)c1 [Example 336] | 118 °C (dec.)
COc1cccc(OC)c1NC(=O)Cc1c(-c2ccccc2)c2cc(Cl)c(C)cc2oc1=O [Example 22] | 231 to 232 °C
Cc1cc2c(-c3ccccc3)c(CC(=O)Nc3c(C(C)C)cccc3C(C)C)c(=O)oc2cc1Cl [Example 46] | 280 to 282 °C
COc1cccc(OC)c1NC(=O)Cc1c(-c2ccccc2)c2cc(C)c(Cl)cc2oc1=O [Example 45] | 247 to 249 °C
COc1cc(C)cc(OC)c1NC(=O)Cc1c(-c2ccccc2)c2cc3c(cc2oc1=O)CCC3 [Example 8] | 237 to 239 °C
COc1cccc(OC)c1NC(=O)Cc1c(-c2ccccc2)c2cc(Cl)c(Cl)c(Cl)c2oc1=O [Example 40] | 289 to 291 °C
COc1cccc(OC)c1NC(=O)Cc1c(-c2ccccc2)c2cc3c(cc2oc1=O)CCC3 [Example 1, N-(2,6-dimethoxyphenyl)-2-(2-oxo-4-phenyl-2,6,7,8-tetrahydrocyclopenta[g]chromen-3-yl)acetamide] | 213 to 215 °C
O=C(Cc1c(-c2ccccc2)c2cc3c(cc2oc1=O)CCC3)Nc1c(Cl)cncc1Cl [Example 15, N-(3,5-dichloro-4-pyridyl)-2-(2-oxo-4-phenyl-2,6,7,8-tetrahydrocyclopenta[g]chromen-3-yl)acetamide] | 257 to 259 °C
COc1cccc(OC)c1NC(=O)Cc1c(-c2ccccc2)c2cc(CN3CCOCC3)c(Cl)cc2oc1=O [Example 71] | 209 to 211 °C
O=C(Cc1c(-c2ccccc2)c2cc3c(cc2oc1=O)C(=O)CC3)Nc1ccc(F)cc1C(F)(F)F [Example 88, 2-(2,8-dioxo-4-phenyl-2,6,7,8-tetrahydrocyclopenta[g]chromen-3-yl)-N-[4-fluoro-2-(trifluoromethyl)phenyl]-acetamide] | 180 to 183 °C
CC(C)c1cccc(C(C)C)c1NC(=O)Cc1c(-c2ccccc2)c2cc(CN3CCOCC3)c(Cl)cc2oc1=O [Example 73] | 296 to 298 °C
COc1cccc(OC)c1NC(=O)Cc1c(-c2ccccc2)c2cc(Cl)c(Cl)cc2oc1=O [Example 36] | 249 to 250 °C
O=C(Cc1c(-c2ccccc2)c2cc3c(cc2oc1=O)CCC3)Nc1ccccc1OC(F)(F)F [Example 12] | 191 to 194 °C
COc1cccc(OC)c1NC(=O)Cc1c(-c2ccccc2)c2cc(COC(C)=O)c(Cl)cc2oc1=O [Example 80, [7-chloro-3-{2-(2,6-dimethoxyanilino)-2-oxoethyl}-2-oxo-4-phenyl-2H-chromen-6-yl]methyl acetate] | 229 to 231 °C
CCc1ccccc1NC(=O)Cc1c(-c2ccccc2)c2cc3c(cc2oc1=O)CCC3 [Example 6] | 234 to 237 °C
COc1cccc(OC)c1NC(=O)Cc1c(-c2ccccc2)c2cc(F)c(F)cc2oc1=O [Example 41] | 196 to 198 °C
CCOc1cccc(OCC)c1NC(=O)Cc1c(-c2ccccc2)c2cc3c(cc2oc1=O)CCC3 [Example 2] | 216 to 219 °C

SMILES | melting point
COc1cccc(O)c1NC(=O)Cc1c(-c2ccccc2)c2cc3c(cc2oc1=O)CCC3 [Example 9] | 179 to 181 °C
Cc1cc2oc(=O)c(CC(=O)Nc3c(C(C)C)cccc3C(C)C)c(-c3ccccc3)c2cc1C [Example 31] | 252 to 253 °C
CCOc1cccc(OCC)c1NC(=O)Cc1c(-c2ccccc2)c2cc(C)c(C)cc2oc1=O [Example 29] | 230 to 231 °C
CNCc1cc2c(-c3ccccc3)c(CC(=O)Nc3ccc(Cl)cc3C(F)(F)F)c(=O)oc2cc1Cl [Example 180, 2-[6-[(methylamino)methyl]-7-chloro-2-oxo-4-phenyl-2H-chromen-3-yl]-N-[4-chloro-2-(trifluoromethyl)phenyl]acetamide] | 205 to 207 °C
COc1cccc(OC)c1NC(=O)Cc1c(-c2ccccc2C)c2cc(Cl)c(C)cc2oc1=O [Example 23] | 176 to 177 °C
CC(C)c1cccc(C(C)C)c1NC(=O)Cc1c(-c2ccccc2)c2cc(F)c(F)cc2oc1=O [Example 42] | 255 to 256 °C
CCc1cccc(CC)c1NC(=O)Cc1c(-c2ccccc2)c2cc(C)c(C)cc2oc1=O [Example 30] | 259 to 260 °C
O=C(Cc1c(-c2ccccc2)c2cc(CN3CCN(c4ncccn4)CC3)c(Cl)cc2oc1=O)Nc1ccc(F)cc1C(F)(F)F [Example 273] | 203 to 205 °C
Cc1cc2oc(=O)c(CC(=O)Nc3c(C(C)C)cccc3C(C)C)c(-c3ccccc3Cl)c2cc1Cl [Example 25] | 245 to 246 °C
CC(C)c1cccc(C(C)C)c1NC(=O)Cc1c(-c2ccccc2)c2cc3c(cc2oc1=O)CCC3 [Example 3] | 261 to 263 °C
O=C(Cc1c(-c2ccccc2)c2cc3c(cc2oc1=O)C(=O)CC3)Nc1ccc(Cl)cc1C(F)(F)F [Example 89] | 189 to 192 °C
COc1cc(O)cc(OC)c1NC(=O)Cc1c(-c2ccccc2)c2cc3c(cc2oc1=O)CCC3 [Example 10] | 160 °C (dec.)
CCc1cccc(CC)c1NC(=O)Cc1c(-c2ccccc2)c2cc(Cl)c(C)cc2oc1=O [Example 26] | 250 to 251 °C
O=C(Cc1c(-c2ccccc2)c2cc3c(cc2oc1=O)CCC3)Nc1ccc(Cl)cc1OC(F)(F)F [Example 19] | 189 to 191 °C
CCOC(=O)C=Cc1cccc(-c2c(CC(=O)Nc3ccc(F)cc3C(F)(F)F)c(=O)oc3cc(Cl)c(C)cc23)c1 [Example 337] | 193 to 196 °C
O=C(Cc1c(-c2ccccc2)c2cc3c(cc2oc1=O)CCC3)Nc1c(F)cc(F)cc1F [Example 17] | 247 to 249 °C
COc1cccc(OC)c1NC(=O)Cc1c(-c2ccccc2)c2cc(CN(C)C)c(Cl)cc2oc1=O [Example 70, 2-[7-chloro-6-{(dimethylamino)methyl}-2-oxo-4-phenyl-2H-chromen-3-yl]-N-(2,6-dimethoxyphenyl)acetamide] | 221 to 223 °C
O=C(Cc1c(-c2ccccc2)c2cc3c(cc2oc1=O)CCC3)Nc1c(F)cccc1C(F)(F)F [Example 18] | 194 to 196 °C
